Experimental data from US11072634B2, “Inhibitors of transglutaminases” (Zedira GmbH, priority 2016, dated 2021).
*1 amine or outer side, *2 acyl side, *3 side chain or, on linkers, in order; H or OH if unused. Where a SMILES comes first, the peptide text is derived from it. [ ]: non-standard residue; d: D form. The star is where a group is joined. Nle(5,6-dioxo,6-NHMe) = CNC(=O)C(=O)CC[C@H](N)C(=O)O; X1 = CCCCCNC(=O)C(=O)CC[C@H](N[*:1])C(=O)[*:2]; Isonicotinoyl(3-COOH) = O=C(O)c1cnccc1C(=O)*; DON = [N-]=[N+]=CC(=O)CC[C@H](N)C(=O)O; Pro(4-oxo) = O=C1CN[C@H](C(=O)O)C1; Chg = N[C@H](C(=O)O)C1CCCCC1; Tle = CC(C)(C)[C@H](N)C(=O)O; Nle = CCCC[C@H](N)C(=O)O; Cbz = O=C(OCc1ccccc1)*

Experiments:
[1] = biological target: T1, TG2 (Homo sapiens, UniProt P21980); test: FXIII assay format using TG2 instead of FXIII (selectivity of FXIIIa blockers); assay type: biochemical; settings: Table 3, selectivity with respect to TG2; read-out: IC50 TG2
T1 sequence (P21980 1-687): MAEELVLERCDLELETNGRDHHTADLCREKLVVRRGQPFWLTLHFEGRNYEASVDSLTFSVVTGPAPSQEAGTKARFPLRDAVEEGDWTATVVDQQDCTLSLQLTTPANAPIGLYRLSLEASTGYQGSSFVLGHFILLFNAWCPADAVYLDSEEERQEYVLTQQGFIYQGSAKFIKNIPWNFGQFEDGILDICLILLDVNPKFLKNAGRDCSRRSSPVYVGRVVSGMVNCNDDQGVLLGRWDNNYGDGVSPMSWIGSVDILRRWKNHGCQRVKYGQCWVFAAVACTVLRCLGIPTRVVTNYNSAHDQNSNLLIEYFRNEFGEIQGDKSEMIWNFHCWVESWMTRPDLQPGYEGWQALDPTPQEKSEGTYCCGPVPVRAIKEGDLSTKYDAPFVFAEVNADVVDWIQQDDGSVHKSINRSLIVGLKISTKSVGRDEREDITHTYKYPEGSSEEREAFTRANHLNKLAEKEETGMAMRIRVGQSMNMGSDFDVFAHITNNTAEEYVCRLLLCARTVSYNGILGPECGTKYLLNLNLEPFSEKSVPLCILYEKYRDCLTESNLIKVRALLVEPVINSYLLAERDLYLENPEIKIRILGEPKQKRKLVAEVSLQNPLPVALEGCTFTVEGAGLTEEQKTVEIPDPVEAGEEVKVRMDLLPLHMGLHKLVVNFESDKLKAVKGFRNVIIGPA
Procedure: (§1) 50 μg lyophilized His-tagged recombinant human factor XIII A-subunit (His6-rhFXIII, Zedira product 1027) is reconstituted in H2O (volume depends on original volume before lyophilization) resulting in a buffer containing 20 mM Tris-HCl, 150 mM NaCl, 1 mM EDTA, 1 mM DTT, 189 mg/ml maltodextrin, pH=7.5. The rhFXIII stock solution is diluted in buffer (50 mM Tris-HCl, 7.5 mM CaCl2, 150 mM NaCl, pH=7.4) to give a working solution of 59 U/ml (based on the amine-incorporation activity measured using transglutaminase activity assay #1036 (Zedira GmbH), described below).
(§2) A 10 mM inhibitor stock solution is prepared in DMSO, and from this a serial 1:2-fold dilution series is prepared also in DMSO. Each of the initial dilutions is subsequently diluted 1:50-fold with buffer (50 mM Tris-HCl, 7.5 mM CaCl2, 150 mM NaCl, pH=7.4) to yield the final working dilutions containing 2% (v/v) DMSO.
(§3) 15 μl of inhibitor working dilution are added per well of a 96 well microtiter plate. As control, 15 μl of a 2% (v/v) DMSO solution prepared using the buffer mentioned above are added per well.
(§4) 480 μl of His6-rhFXIII working solution and 120 μl human alpha thrombin (0.5 NIH units/μl) are added to 10.8 ml assay buffer (50 mM Tris-HCl, 7.5 mM CaCl2, 150 mM NaCl, 5 mM DTT, 13.4 mM glycine methylester, 50 μM Abz-NE(CAD-DNP)EQVSPLILLK-OH, (Zedira product A101; patent No.: EP 1781807B1), pH=7.4). From this master-mix solution, 285 μl are added per well containing the inhibitor. Increase in fluorescence is measured using […] and λem=418 nm at 37° C. for 35 min. A slope of the increase in fluorescence between 20 and 30 min is calculated for determination of the IC50 value (inhibitor concentration at which 50% of the initial FXIII activity is blocked).
This assay was also used to determine selectivity of inhibitors preferentially blocking FXIIIa by using TG2 instead of FXIII.
(§5) Analysis of enzymatic activity is performed by calculation of the slope of an increase in fluorescence intensity. IC50 values are calculated by plotting the enzymatic activity (as percentage from control containing 2% DMSO instead of inhibitor) against the inhibitor concentration. IC50 is defined as the inhibitor concentration blocking 50%) of initial enzyme activity.

[2] = tested on: fresh citrated whole blood; test: Thromboelastometry (ROTEM delta) in whole blood with t-PA; settings: human whole blood; for reduction of maximum clot firmness (MCF) compared to control (K): 6.25-50 μM, with t-PA; for clot lysis at 60 minutes (LI60): in the presence of 0.02% t-PA
Procedure: Thromboelastometry is a visco-elastic method for the assessment of blood coagulation. In whole blood parameters like clotting time (CT), clot formation time (CFT), maximum clot firmness (MCF) and lysis index at 60 min (LI60) were obtained using the ROTEM® delta device according to the manufacturer.
Briefly, 20 μL star-TEM® (0.2 mol/l CaCl2), 20 μL r ex-TEM® (recombinant tissue factor, phospholipids, heparin inhibitor), 10 μL inhibitor stock solution (1.8-0.23 mM), combined with 10 μL t-PA stock solution (0.72 μg/ml) to yield concentrations of 0.9-0.11 mM in 18% DMSO/PBS with 0.36 μg/ml t-PA and 300 μL fresh citrated whole blood (human, from healthy consenting donors) were mixed in a disposable cuvette. As control the inhibitor stock solution was replaced by 36% DMSO/0.36 μg/ml t-PA in PBS.

[3] = biological target: T2, recombinant human factor XIII A-subunit (rhFXIII-A, plasma transglutaminase) (Homo sapiens, UniProt P00488); test: Inhibition of rec. human coagulation factor XIII (fluorescence, Abz-NE(CAD-DNP)EQVSPLILLK-OH); assay type: biochemical; settings: Table 3, FXIII inhibitors; read-out: IC50 FXIII
T2 construct: His6; purchased Zedira 1027 (so in the source); T027)
T2 sequence (P00488 39-732 limits assumed): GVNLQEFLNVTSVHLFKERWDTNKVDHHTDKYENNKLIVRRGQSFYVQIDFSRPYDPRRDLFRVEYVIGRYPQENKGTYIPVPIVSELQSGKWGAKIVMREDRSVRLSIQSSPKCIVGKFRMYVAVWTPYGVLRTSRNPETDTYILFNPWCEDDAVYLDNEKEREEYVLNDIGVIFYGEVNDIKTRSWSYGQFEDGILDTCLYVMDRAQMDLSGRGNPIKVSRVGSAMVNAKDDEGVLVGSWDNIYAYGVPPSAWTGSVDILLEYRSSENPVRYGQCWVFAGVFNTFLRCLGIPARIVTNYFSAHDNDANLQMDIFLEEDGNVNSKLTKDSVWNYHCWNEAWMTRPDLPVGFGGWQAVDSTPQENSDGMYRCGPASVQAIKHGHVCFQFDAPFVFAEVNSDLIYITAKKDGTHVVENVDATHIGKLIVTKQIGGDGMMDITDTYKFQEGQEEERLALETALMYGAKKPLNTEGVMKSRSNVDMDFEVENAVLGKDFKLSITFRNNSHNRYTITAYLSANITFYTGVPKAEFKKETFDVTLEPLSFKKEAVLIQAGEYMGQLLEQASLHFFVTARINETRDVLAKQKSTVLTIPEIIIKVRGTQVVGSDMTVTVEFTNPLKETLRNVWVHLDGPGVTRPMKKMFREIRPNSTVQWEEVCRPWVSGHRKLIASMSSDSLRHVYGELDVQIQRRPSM
Procedure: Method for Inhibition Studies of Rec. Human Coagulation Factor XIII (Plasma Transglutaminase, rhFXIII-A)
as §1, §2, §3, §4, §5

[4] = tested on: Huh7 (human liver carcinoma cell line); test: Metabolic activity, EZ4U-Assay; assay type: cell-based
Procedure: (§6) The following cell lines are used for determination of cytotoxicity: • CaCo2 (human colon carcinoma cell line) • Huh7 (human liver carcinoma cell line).
(§7) Cells are cultivated in DMEM/10% FCS at 37° C. and 5% CO2 in a 96 well plate with an initial seeding density of 2×10^4 cells/well.
(§8) Transglutaminase inhibitors are added to the cells with final concentrations from 0.1 μM to 1 mM one hour after seeding. The different inhibitor dilutions are prepared in DMSO, resulting in a final concentration of 1% (v/v) DMSO in every well (2 μl inhibitor in 200 μl cell culture medium). Cycloheximide (2.5 μg/ml) and Camptothecin (0.2 μg/ml) are used as control compounds. All measurements are performed in triplicates.
(§9) Determination of metabolic activity using EZ4U-Assay (Biomedica, Cat. No. BI-5000).
(§10) After 48 h of incubation with inhibitors or controls, the tetrazolium substrate is added to the cells. Substrate turnover by the cells is measured over two hours at 450 nm (using 630 nm was reference wavelength).

[5] = tested on: CaCo2 (human colon carcinoma cell line); test: Metabolic activity, EZ4U-Assay; assay type: cell-based
Procedure: as §6, §7, §8, §9, §10

[6] = tested on: Huh7 (human liver carcinoma cell line); test: Cell Proliferation ELISA, BrdU; assay type: cell-based
Procedure: as §6, §7, §8
(§11) Determination of proliferation using Cell Proliferation ELISA, BrdU (Roche, Cat. No. 11647229001).
(§12) After 24 h of incubation with inhibitors or controls, BrdU is added to the cells. After further incubation for 18 h, the cells are fixed and cellular DNA becomes denatured. A monoclonal antibody (conjugated with peroxidase) raised against BrdU is added to the wells and binds to BrdU which is incorporated into the DNA. Substrate solution is added and absorbance at 450 nm is recorded. Further analysis is performed according to the manufacturer's protocol.

[7] = tested on: CaCo2 (human colon carcinoma cell line); test: Cell Proliferation ELISA, BrdU; assay type: cell-based
Procedure: as §6, §7, §8, §11, §12

[8] = tested on: CaCo2 and Huh7 cells; test: Cytotoxicity of transglutaminase inhibitors (BrdU and EZ4U); assay type: cell-based, human; settings: BrdU and EZ4U, depending on the cell type
Procedure: as §6, §7, §8
Cytotoxicity of transglutaminase inhibitors is evaluated with two different assays:
as §11
After 24 h of incubation with inhibitors or controls, BrdU is added to the cells. After further incubation for 18 h, the cells are fixed and cellular DNA becomes denatured. […] Substrate solution is added and absorbance at 450 nm is recorded. […]
as §10

Row | SMILES | IC50 [1] | reduction of maximum clot firmness (MCF) compared to control (K) [2] | clot lysis at 60 minutes (LI60) [2] | IC50 [3] | Cytotoxicity concentration (>10% deviation from negative control), EZ4U, Huh-7 [4] | Cytotoxicity concentration (>10% deviation from negative control), EZ4U, Caoo2 [5] | Cytotoxicity concentration (>10% deviation from negative control), BrdU, Huh-7 [6] | Cytotoxicity concentration (>10% deviation from negative control), BrdU, Caco2 [7] | concentration at which cytotoxic (reduced cell proliferation and metabolic activity) [8]
1 | CNC(=O)C(=O)CC[C@H](NC(=O)c1ccncc1C(=O)O)C(=O)N[C@H](C(=O)N1CC(=O)C[C@H]1C(=O)N[C@H](C(=O)N[C@H](C(N)=O)C1CCCCC1)C1CCCCC1)C(C)(C)C [Compound E25, 4-((S)-1-((S)-1-((S)-2-((S)-2-((S)-2-amino-1-cyclonexyl-2-oxoethylamino)-1-cyclonexyl-2-oxoethylcarbamoyl)-4-oxopyrrolidin-1-yl)-3,3-dimethyl-1-oxobutan-2-ylamino)-6-(methylamino)-1,5,6-trioxohexan-2-ylcarbamoyl)nicotinic acid] ({Isonicotinoyl(3-COOH)}-[Nle(5,6-dioxo,6-NHMe)][Tle][Pro(4-oxo)][Chg][Chg]-NH2) | 5500 nM | dose dependent influence | dose dependent influence | 50 nM | – | – | – | – | –
2 | CCCCCNC(=O)C(=O)CC[C@H](NC(=O)c1ccncc1C(=O)O)C(=O)N[C@H](C(=O)N1CC(=O)C[C@H]1C(=O)N[C@H](C(=O)N[C@H](C(N)=O)C1CCCCC1)C1CCCCC1)C(C)(C)C [Compound E27, 4-((S)-1-((S)-1-((S)-2-((S)-2-((S)-2-amino-1-cyclohexyl-2-oxoethylamino)-1-cyclohexyl-2-oxoethylcarbamoyl)-4-oxopyrrolidin-1-yl)-3,3-dimethyl-1-oxobutan-2-ylamino)-6-1,5,6-trioxo-6-(pentylamino)hexan-2-ylcarbamoyl)nicotinic acid] ({Isonicotinoyl(3-COOH)}-[X1][Tle][Pro(4-oxo)][Chg][Chg]-NH2) | 7800 nM | dose dependent influence | dose dependent influence | 60 nM | – | – | – | – | –
3 | CCCC[C@H](NC(=O)[C@H](CCC(=O)C(=O)NC)NC(=O)CNC(=O)[C@@H]1CCCN1C(=O)CNC(=O)[C@H](CC(C)C)NC(C)=O)C(=O)N[C@H](C(=O)N[C@@H](CC(C)C)C(=O)N1CCC[C@H]1C(=O)N[C@@H](Cc1c[nH]c2ccccc12)C(N)=O)[C@@H](C)CC [Compound E37, (S)-2-(2-((S)-1-(2-((S)-2-acetamido-4-methylpentanamido)acetyl)pyrrolidine-2-carboxamido)acetamido)-N1-((S)-1-((2S,3S)-1-((S)-1-((S)-2-((S)-1-amino-3-(1H-indol-3-yl)-1-oxopropan-2-ylcarbamoyl)pyrrolidin-1-yl)-4-methyl-1-oxopentan-2-ylamino)-3-methyl-1-oxopentan-2-ylamino)-1-oxohexan-2-yl)-N6-methyl-5-oxohexanediamide] (Ac-LGPG[Nle(5,6-dioxo,6-NHMe)][Nle]ILPW-NH2) | 390 nM | – | – | 2500 nM | – | – | – | – | –
4 | COC(=O)[C@H](CC(C)C)NC(=O)[C@@H]1CCCN1C(=O)[C@@H](NC(=O)[C@H](CCC(=O)C=[N+]=[N-])NC(=O)OCc1ccccc1)C(C)C [Compound Z006, Z-DON-VPL-OMe, reference compound] (Cbz-[DON]VPL-OMe) | – | – | – | – | 125 µM | 500 µM | 125 µM | 250 µM | 125 µM
